Test results taken from PubChem BioAssay AID1228 (The Scripps Research Institute Molecular Screening Center, 2008).
The source made the active and inactive calls.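 How the source made its calls: active means EC50 at or below 10 µM; inactive means EC50 above 10 µM.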

tested on: CHO NFAT-BLA reporter, FRET beta-lactamase activation counterscreen; assay: nonspecific beta-lactamase reporter activation – CHO NFAT-bla cells, FRET readout, counter-screen for GALR2 agonist project, dose response (AID 1228)

Row | Structure (SMILES) | EC50
1 | C=CCNC(=O)/C(C#N)=C/c1cn(-c2ccccc2)nc1-c1cccs1 | > 55.7 µM (inactive)
2 | Cc1cccc2sc(NNC(=O)c3ccc(S(=O)(=O)N4CC(C)CC(C)C4)cc3)nc12 (stereo unspecified) | > 55.7 µM (inactive)
3 | Cc1c2ccncc2c(C)c2c1[nH]c1ccccc12 | > 55.7 µM (inactive)
4 | Cc1cccc2sc(NNC(=O)c3ccc(S(=O)(=O)N4CCCC(C)C4)cc3)nc12 (stereo unspecified) | > 55.7 µM (inactive)
5 | Cc1cc(C)c2nc(NNC(=O)c3ccc(S(=O)(=O)N4CC(C)CC(C)C4)cc3)sc2c1 (stereo unspecified) | > 55.7 µM (inactive)
6 | Cc1cc(C)c2nc(NNC(=O)c3ccc(S(=O)(=O)N4CCCC(C)C4)cc3)sc2c1 (stereo unspecified) | > 55.7 µM (inactive)
7 | COc1cc2c3cc1Oc1cc(ccc1O)C[C@@H]1c4c(cc(OC)c(O)c4Oc4ccc(cc4)C[C@H]3N(C)CC2)CCN1C | > 55.7 µM (inactive)
8 | CC1=C/C(=N\OS(=O)(=O)c2ccccc2)C(C(C)C)=CC1=O | > 55.7 µM (inactive)
9 | Cc1ccc2nsnc2c1NC(=O)c1ccc(-c2cc(Cl)ccc2Cl)o1 | > 55.7 µM (inactive)
10 | CCCOc1ccc(C(=O)C(CCC(CNCC)C(=O)c2ccc(OCCC)cc2)CNCC)cc1 (stereo unspecified) | > 55.7 µM (inactive)
11 | CCOc1ccc(Br)cc1C(=O)Nc1ccc(C(=O)NCC(C)C)cc1 | > 55.7 µM (inactive)
